Each structure is given as a SMILES string.

This assay relates to ERK phosphorylation. The experiment in a line: Analysis of ERK phosphorylation (Alphascreen SureFire Phospho-ERK 1/2). Type of assay: cell-based, human and mouse. Conditions: cells treated for 1 h; human melanoma cells, human and mouse colon cancer cells; read-out: Minimum concentration (nM) required for ≧80% inhibition of pERK. The method, then: This assay was carried out with human melanoma cells, human and mouse colon cancer cells. Cells were treated for 1 h with various concentrations of test compounds. ERK phosphorylation analysis was performed using the Alphascreen SureFire Phospho-ERK 1/2 Kit (Perkin Elmer), by following the manufacturer's instructions. % inhibition of ERK phosphorylation was determined as: 100−{(RFU test−RFU lysis buffer control)/(RFU vehicle treated control−RFU lysis buffer control)}×100. Percentage inhibition at concentrations of 0.01 nM, 0.03 nM, 0.1-0.9 nM, 1 nM to 3 nM, 4-100 nM, and >100 nM, for the stated examples is setworth here. The percentage inhibition at the above depicted concentrations for the compounds stated are given in the following groups.
In general terms: Alpha assays give light when donor and acceptor beads are brought close together.
Consider `Cc1c(=O)n(C)c(Nc2ccc(I)cc2F)c2c(=O)[nH]c(=O)n(-c3cccc(OC(C)(C)C(N)=O)c3)c12` [Compound 20, 2-(3-(5-((2-fluoro-4-iodophenyl)amino)-6,8-dimethyl-2,4,7-trioxo-3,4,6,7-tetrahydropyrido[4,3-d]pyrimidin-1(2H)-yl)phenoxy)-2-methylpropanamide], for which the IC80 was 1 to 3 nM. Turning to `CNC(=O)CCc1cccc(-n2c(=O)[nH]c(=O)c3c(Nc4ccc(I)cc4F)n(C)c(=O)c(C)c32)c1` [Compound 15, 3-(3-(5-((2-fluoro-4-iodophenyl)amino)-6,8-dimethyl-2,4,7-trioxo-3,4,6,7-tetrahydropyrido[4,3-d]pyrimidin-1(2H)-yl)phenyl)-N-methylpropanamide], the IC80 was 1 to 3 nM.

Turning to `Cc1c(=O)n(C)c(Nc2ccc(I)cc2F)c2c(=O)[nH]c(=O)n(-c3cccc(C(O)C(N)=O)c3)c12` (stereo not shown) [Compound 14, 2-(3-(5-((2-fluoro-4-iodophenyl)amino)-6,8-dimethyl-2,4,7-trioxo-3,4,6,7-tetrahydropyrido[4,3-d]pyrimidin-1(2H)-yl)phenyl)-2-hydroxyacetamide], the IC80 was in the range of 4 to 100 nM. The same measure for `Cc1c(=O)n(C)c(Nc2ccc(I)cc2F)c2c(=O)n(C)c(=O)n(-c3cccc(C(=O)N4CCOCC4)c3)c12` [Compound 63, 5-((2-fluoro-4-iodophenyl)amino)-3,6,8-trimethyl-1-(3-(morpholine-4-carbonyl)phenyl)pyrido[4,3-d]pyrimidine-2,4,7(1H,3H,6H)-trione]: 1 to 3 nM.

As to `Cc1c(=O)n(C)c(Nc2ccc(I)cc2F)c2c(=O)n(C)c(=O)n(-c3cccc(C(F)(F)C(N)=O)c3)c12` [Compound 45, 2,2-difluoro-2-(3-(5-((2-fluoro-4-iodophenyl)amino)-3,6,8-trimethyl-2,4,7-trioxo-3,4,6,7-tetrahydropyrido[4,3-d]pyrimidin-1(2H)-yl)phenyl)acetamide], the IC80 was 1 to 3 nM. The same measure for `Cc1c(=O)n(C)c(Nc2ccc(I)cc2F)c2c(=O)n(C3CC3)c(=O)n(-c3cccc(OCC(N)=O)c3)c12` [Compound 35, 2-(3-(3-cyclopropyl-5-((2-fluoro-4-iodophenyl)amino)-6,8-dimethyl-2,4,7-trioxo-3,4,6,7-tetrahydropyrido[4,3-d]pyrimidin-1(2H)-yl)phenoxy)acetamide]: 0.03 nM; for `Cc1c(=O)n(C)c(Nc2ccc(I)cc2F)c2c(=O)n(C3CC3)c(=O)n(-c3cccc(C(=O)N4CCCC4)c3)c12` [Compound 27, 3-cyclopropyl-5-((2-fluoro-4-iodophenyl)amino)-6,8-dimethyl-1-(3-(pyrrolidine-1-carbonyl)phenyl)pyrido[4,3-d]pyrimidine-2,4,7(1H,3H,6H)-trione]: 1 to 3 nM. The same measure for `Cc1c(=O)n(C)c(Nc2ccc(I)cc2F)c2c(=O)[nH]c(=O)n(-c3cccc(C(=O)N4CCOCC4)c3)c12` [Compound 7, 5-((2-fluoro-4-iodophenyl)amino)-6,8-dimethyl-1-(3-(morpholine-4-carbonyl)phenyl)pyrido[4,3-d]pyrimidine-2,4,7(1H,3H,6H)-trione]: 4 to 100 nM; for `Cc1c(=O)n(C)c(Nc2ccc(I)cc2F)c2c(=O)n(C)c(=O)n(-c3cccc(C(=O)NC4CC4)c3)c12` [Compound 54, N-cyclopropyl-3-(5-((2-fluoro-4-iodophenyl)amino)-3,6,8-trimethyl-2,4,7-trioxo-3,4,6,7-tetrahydropyrido[4,3-d]pyrimidin-1(2H)-yl)benzamide]: 1 to 3 nM. The same measure for `Cc1c(=O)n(C)c(Nc2ccc(I)cc2F)c2c(=O)n(C)c(=O)n(-c3cccc(CCC(N)=O)c3)c12` [Compound 68, 3-(3-(5-((2-fluoro-4-iodophenyl)amino)-3,6,8-trimethyl-2,4,7-trioxo-3,4,6,7-tetrahydropyrido[4,3-d]pyrimidin-1(2H)-yl)phenyl)propanamide]: 1 to 3 nM; for `CCn1c(=O)c2c(Nc3ccc(I)cc3F)n(C)c(=O)c(C)c2n(-c2cccc(CC(=O)NC3CC3)c2)c1=O` [Compound 59, N-cyclopropyl-2-(3-(3-ethyl-5-((2-fluoro-4-iodophenyl)amino)-6,8-dimethyl-2,4,7-trioxo-3,4,6,7-tetrahydropyrido[4,3-d]pyrimidin-1(2H)-yl)phenyl)acetamide]: 1 to 3 nM; for `Cc1c(=O)n(C)c(Nc2ccc(I)cc2F)c2c(=O)n(C3CC3)c(=O)n(-c3cccc(CCC(=O)NC4CC4)c3)c12` [Compound 40, N-cyclopropyl-3-(3-(3-cyclopropyl-5-((2-fluoro-4-iodophenyl)amino)-6,8-dimethyl-2,4,7-trioxo-3,4,6,7-tetrahydropyrido[4,3-d]pyrimidin-1(2H)-yl)phenyl)propanamide]: 4 to 100 nM. Turning to `Cc1c(=O)n(C)c(Nc2ccc(I)cc2F)c2c(=O)n(C3CC3)c(=O)n(-c3cccc(C(C)(C)C(N)=O)c3)c12` [Compound 28, 2-(3-(3-cyclopropyl-5-((2-fluoro-4-iodophenyl)amino)-6,8-dimethyl-2,4,7-trioxo-3,4,6,7-tetrahydropyrido[4,3-d]pyrimidin-1(2H)-yl)phenyl)-2-methylpropanamide], the IC80 lay in the range of 0.1 to 0.9 nM. Regarding `Cc1c(=O)n(C)c(Nc2ccc(I)cc2F)c2c(=O)n(C(C)C)c(=O)n(-c3cccc(C(=O)NC4CC4)c3)c12` [Compound 69, N-cyclopropyl-3-(5-((2-fluoro-4-iodophenyl)amino)-3-isopropyl-6,8-dimethyl-2,4,7-trioxo-3,4,6,7-tetrahydropyrido[4,3-d]pyrimidin-1(2H)-yl)benzamide], the IC80 is above 100 nM. The same measure for `Cc1c(=O)n(C)c(Nc2ccc(I)cc2F)c2c(=O)[nH]c(=O)n(-c3cccc(C(=O)N4CCN(C)CC4)c3)c12` [Compound 21, 5-((2-fluoro-4-iodophenyl)amino)-6,8-dimethyl-1-(3-(4-methylpiperazine-1-carbonyl)phenyl)pyrido[4,3-d]pyrimidine-2,4,7(1H,3H,6H)-trione]: 0.1 to 0.9 nM; for `Cc1c(=O)n(C)c(Nc2ccc(I)cc2F)c2c(=O)n(C)c(=O)n(-c3cccc(C(=O)NC4CCOCC4)c3)c12` [Compound 52, 3-(5-((2-fluoro-4-iodophenyl)amino)-3,6,8-trimethyl-2,4,7-trioxo-3,4,6,7-tetrahydropyrido[4,3-d]pyrimidin-1(2H)-yl)-N-(tetrahydro-2H-pyran-4-yl)benzamide]: 4 to 100 nM.

In the case of `Cc1c(=O)n(C)c(Nc2ccc(I)cc2F)c2c(=O)n(C)c(=O)n(-c3cccc([C@@H](O)C(N)=O)c3)c12` [Compound 75, (R)-2-(3-(5-((2-fluoro-4-iodophenyl)amino)-3,6,8-trimethyl-2,4,7-trioxo-3,4,6,7-tetrahydropyrido[4,3-d]pyrimidin-1(2H)-yl)phenyl)-2-hydroxyacetamide], the IC80 lay in the range of 1 to 3 nM. Consider `Cc1c(=O)n(C)c(Nc2ccc(I)cc2F)c2c(=O)n(C3CC3)c(=O)n(-c3cccc(CC(=O)NC4COC4)c3)c12` [Compound 31, 2-(3-(3-cyclopropyl-5-((2-fluoro-4-iodophenyl)amino)-6,8-dimethyl-2,4,7-trioxo-3,4,6,7-tetrahydropyrido[4,3-d]pyrimidin-1(2H)-yl)phenyl)-N-(oxetan-3-yl)acetamide], for which the IC80 was found to be 0.01 nM. For the compound `Cc1c(=O)n(C)c(Nc2ccc(I)cc2F)c2c(=O)[nH]c(=O)n(-c3cccc(C(C)(C)C(N)=O)c3)c12` [Compound 9, 2-(3-(5-((2-fluoro-4-iodophenyl)amino)-6,8-dimethyl-2,4,7-trioxo-3,4,6,7-tetrahydropyrido[4,3-d]pyrimidin-1(2H)-yl)phenyl)-2-methylpropanamide], the IC80 was in the range of 0.1 to 0.9 nM.
